Source: publication PMC7179958 (CPT: Pharmacometrics & Systems Pharmacology, 2020)

Key:
human hepatocytes = experiment: Uptake of pitavastatin and eltrombopag in cryopreserved human hepatocytes (oil spin method), comeasurement, micro‐rate constant mechanistic model; assay type: in vitro ADME
Method: Human hepatocytes were obtained from BioIVT (Brussels, Belgium; lot number: LYB; 10 donor LiverPool (8 Caucasians, 1 African American, and 1 Hispanic) and thawed according to supplier guidelines in Leibovitz L15 medium. Hepatocytes were kept on ice prior to use and were used within 3 hours of defrosting.
Cells were separated using an oil spin method similar to the literature. ^11 , ^17 After separation, the tubes were frozen on dry ice and the bottom layer was cut off.
A dilution factor of 100 was used to scale from pmol/mL/1 × 10^5 cells to nmol/mL/1 × 10^6 cells.
Passive rate constants for movement into and out of the cell (k f.X and k bX, respectively) as well as uptake transporter‐mediated rate constants for association to the transporter (k aX) and dissociation (k dX) and translocation (k tX) from the transporter into the medium and cell, respectively. […] The sets of ODEs for all the models (models 1–4; Table 1 ) tested for structural identifiability and used for parameter estimation are included in the Supplemental Material .
Parameter estimation was conducted within Monolix 2018 R2 (Lixoft, Antony, France) for each concentration and experiment as an individual data set, where to ensure positivity, a log‐normal distribution was assumed for each parameter, with a proportional residual error model for the observations.
Hepatocyte Incubations. […] Eltrombopag was dissolved in DMSO to give 30 µmol/mL, then diluted 333-fold to 90 nmol/mL in Leibovitz L15 medium. […] Briefly, 0.5 mL microtubes (12049877, Thermo-Fisher Scientific, Gothenburg, Sweden) layered with 15 µL of 4 % cesium chloride onto which 140 µL of 8:2 silicone oil: mineral oil, with oil red O was added. Samples were taken by transferring 100 µL of hepatocyte suspension into the microtube and spun for 15 s in a Minispin centrifuge (Eppendorf, Horsholm, Denmark), during which time the hepatocytes passed through the oil into the cesium chloride bottom layer. The tubes were then frozen on dry ice and the bottom layer cut off once frozen into a 1 mL deep well plate (260252, Thermo-Fisher Scientific, Gothenburg, Sweden).
Sample Extraction. 50 µL of water suitable for UPLC (MilliQ ELGA water, Merck-Millipore, Solna, Sweden) and 150 µL of stop solution (50:50 MeOH:MeCN, containing 0.8 % formic acid and 4 pmol/mL 5,5-diethyl-1,3-diphenyl-2-iminobarbituric acid as internal standard) were added to the frozen samples of the cut-off tube bottoms. Samples were mixed on a plate shaker for 1 h and then stored at – 80 °C overnight. Prior to analysis, samples were defrosted and mixed for 30 min before centrifugation of the plates at 4000 g for 20 min at 4 °C. Samples were transferred to a conical bottomed 96 well plate for analysis (249944, Thermo-Fisher Scientific, Gothenburg, Sweden) and diluted 1:1 with MilliQ ELGA water.
Mechanistic Modeling. […] An estimate for the total amount of transporters (To) can be obtained during the mechanistic modeling process (9, 10), and therefore Tf can be replaced using the conservation law during parameter estimation:
Parameter estimation for all model were conducted within the Monolix suite 2018 R2 (Lixoft, Antony, France) where to ensure positivity, a log-normal distribution was assumed for each parameter in the candidate models, together with a proportional residual error model for the observations.

[1] = test system: UDP‐glucuronosyltransferase (UGT)1A3 and 2B7 and cytochrome P450 (CYP)2C9; details: inhibition by eltrombopag of UGT1A3, 2B7 and CYP2C9 (exception CYP1B1); cited from earlier work
[2] = model 1, conditional mode (minimum‐maximum) for 1 × 10^6 cells
[3] = model 1 micro‐rate constants, conditional mode (minimum‐maximum) for 1 × 10^6 cells

CC1=NN(c2ccc(C)c(C)c2)C(=O)/C1=N\Nc1cccc(-c2cccc(C(=O)O)c2)c1O [eltrombopag, Eltrombopag]
effect on transporter‐mediated uptake of pitavastatin (human hepatocytes; 30 nmol/mL eltrombopag, 15 minute preincubation, overcome at 10–100 nmol/mL pitavastatin): reduced
F T.X, fraction transported (human hepatocytes; CLup.X/(CLup.X+Pdif.X), Eq. 4): 0.12 (0.09–0.2)
DV = amount of measured pitavastatin and/or eltrombopag (human hepatocytes; ID 29, pitavastatin AMT 10 nmol at TIME 15, TIME 15.5 min (normalised to post eltrombopag incubation)): 1035.93 nmol
DV = amount of measured pitavastatin and/or eltrombopag (human hepatocytes; ID 29, pitavastatin AMT 10 nmol at TIME 15, TIME 16 min): 1126.83 nmol
DV = amount of measured pitavastatin and/or eltrombopag (human hepatocytes; ID 29, pitavastatin AMT 10 nmol at TIME 15, TIME 17 min): 1088.94 nmol
DV = amount of measured pitavastatin and/or eltrombopag (human hepatocytes; ID 29, pitavastatin AMT 10 nmol at TIME 15, TIME 20 min): 1007.88 nmol
DV = amount of measured pitavastatin and/or eltrombopag (human hepatocytes; ID 29, pitavastatin AMT 10 nmol at TIME 15, TIME 25 min): 1166.93 nmol
DV = amount of measured pitavastatin and/or eltrombopag (human hepatocytes; ID 29, pitavastatin AMT 10 nmol at TIME 15, TIME 45 min): 1002.58 nmol
DV = amount of measured pitavastatin and/or eltrombopag (human hepatocytes; ID 30, pitavastatin AMT 10 nmol at TIME 15, TIME 15.25 min): 729.81 nmol
DV = amount of measured pitavastatin and/or eltrombopag (human hepatocytes; ID 30, pitavastatin AMT 10 nmol at TIME 15, TIME 15.5 min): 682.02 nmol
DV = amount of measured pitavastatin and/or eltrombopag (human hepatocytes; ID 30, pitavastatin AMT 10 nmol at TIME 15, TIME 16 min): 633.62 nmol
DV = amount of measured pitavastatin and/or eltrombopag (human hepatocytes; ID 30, pitavastatin AMT 10 nmol at TIME 15, TIME 17 min): 618.74 nmol
DV = amount of measured pitavastatin and/or eltrombopag (human hepatocytes; ID 30, pitavastatin AMT 10 nmol at TIME 15, TIME 20 min): 608.21 nmol
DV = amount of measured pitavastatin and/or eltrombopag (human hepatocytes; ID 30, pitavastatin AMT 10 nmol at TIME 15, TIME 25 min): 683.69 nmol
DV = amount of measured pitavastatin and/or eltrombopag (human hepatocytes; ID 30, pitavastatin AMT 10 nmol at TIME 15, TIME 45 min): 599.94 nmol
DV = amount of measured pitavastatin and/or eltrombopag (human hepatocytes; ID 31, pitavastatin AMT 30 nmol at TIME 15, TIME 15.25 min): 1382.52 nmol
DV = amount of measured pitavastatin and/or eltrombopag (human hepatocytes; ID 31, pitavastatin AMT 30 nmol at TIME 15, TIME 15.5 min): 1329.86 nmol
DV = amount of measured pitavastatin and/or eltrombopag (human hepatocytes; ID 31, pitavastatin AMT 30 nmol at TIME 15, TIME 16 min): 1156.33 nmol
DV = amount of measured pitavastatin and/or eltrombopag (human hepatocytes; ID 31, pitavastatin AMT 30 nmol at TIME 15, TIME 17 min): 1204.59 nmol
DV = amount of measured pitavastatin and/or eltrombopag (human hepatocytes; ID 31, pitavastatin AMT 30 nmol at TIME 15, TIME 20 min): 1196.1 nmol
DV = amount of measured pitavastatin and/or eltrombopag (human hepatocytes; ID 31, pitavastatin AMT 30 nmol at TIME 15, TIME 25 min): 890.75 nmol
DV = amount of measured pitavastatin and/or eltrombopag (human hepatocytes; ID 31, pitavastatin AMT 30 nmol at TIME 15, TIME 45 min): 983.35 nmol
DV = amount of measured pitavastatin and/or eltrombopag (human hepatocytes; ID 32, pitavastatin AMT 30 nmol at TIME 15, TIME 15.25 min): 1189.57 nmol
DV = amount of measured pitavastatin and/or eltrombopag (human hepatocytes; ID 32, pitavastatin AMT 30 nmol at TIME 15, TIME 15.5 min): 1153.93 nmol
DV = amount of measured pitavastatin and/or eltrombopag (human hepatocytes; ID 32, pitavastatin AMT 30 nmol at TIME 15, TIME 16 min): 1218.64 nmol
DV = amount of measured pitavastatin and/or eltrombopag (human hepatocytes; ID 32, pitavastatin AMT 30 nmol at TIME 15, TIME 17 min): 1146.32 nmol
DV = amount of measured pitavastatin and/or eltrombopag (human hepatocytes; ID 32, pitavastatin AMT 30 nmol at TIME 15, TIME 20 min): 1061.43 nmol
DV = amount of measured pitavastatin and/or eltrombopag (human hepatocytes; ID 32, pitavastatin AMT 30 nmol at TIME 15, TIME 25 min): 1010.46 nmol
DV = amount of measured pitavastatin and/or eltrombopag (human hepatocytes; ID 32, pitavastatin AMT 30 nmol at TIME 15, TIME 45 min): 1102.17 nmol
DV = amount of measured pitavastatin and/or eltrombopag (human hepatocytes; ID 33, pitavastatin AMT 30 nmol at TIME 15, TIME 15.25 min): 668.8 nmol
DV = amount of measured pitavastatin and/or eltrombopag (human hepatocytes; ID 33, pitavastatin AMT 30 nmol at TIME 15, TIME 15.5 min): 715.76 nmol
DV = amount of measured pitavastatin and/or eltrombopag (human hepatocytes; ID 33, pitavastatin AMT 30 nmol at TIME 15, TIME 16 min): 633.41 nmol
DV = amount of measured pitavastatin and/or eltrombopag (human hepatocytes; ID 33, pitavastatin AMT 30 nmol at TIME 15, TIME 17 min): 623.34 nmol
DV = amount of measured pitavastatin and/or eltrombopag (human hepatocytes; ID 33, pitavastatin AMT 30 nmol at TIME 15, TIME 20 min): 652.6 nmol
DV = amount of measured pitavastatin and/or eltrombopag (human hepatocytes; ID 33, pitavastatin AMT 30 nmol at TIME 15, TIME 25 min): 543.53 nmol
DV = amount of measured pitavastatin and/or eltrombopag (human hepatocytes; ID 33, pitavastatin AMT 30 nmol at TIME 15, TIME 45 min): 574.79 nmol
DV = amount of measured pitavastatin and/or eltrombopag (human hepatocytes; ID 34, pitavastatin AMT 100 nmol at TIME 15, TIME 15.25 min): 1383.49 nmol
DV = amount of measured pitavastatin and/or eltrombopag (human hepatocytes; ID 34, pitavastatin AMT 100 nmol at TIME 15, TIME 15.5 min): 1026.05 nmol
DV = amount of measured pitavastatin and/or eltrombopag (human hepatocytes; ID 34, pitavastatin AMT 100 nmol at TIME 15, TIME 16 min): 1256.06 nmol
DV = amount of measured pitavastatin and/or eltrombopag (human hepatocytes; ID 34, pitavastatin AMT 100 nmol at TIME 15, TIME 17 min): 1131.42 nmol
DV = amount of measured pitavastatin and/or eltrombopag (human hepatocytes; ID 34, pitavastatin AMT 100 nmol at TIME 15, TIME 20 min): 983.13 nmol
DV = amount of measured pitavastatin and/or eltrombopag (human hepatocytes; ID 34, pitavastatin AMT 100 nmol at TIME 15, TIME 25 min): 1130.84 nmol
DV = amount of measured pitavastatin and/or eltrombopag (human hepatocytes; ID 34, pitavastatin AMT 100 nmol at TIME 15, TIME 45 min): 1000.32 nmol
DV = amount of measured pitavastatin and/or eltrombopag (human hepatocytes; ID 36, pitavastatin AMT 100 nmol at TIME 15, TIME 15.25 min): 470.72 nmol
DV = amount of measured pitavastatin and/or eltrombopag (human hepatocytes; ID 36, pitavastatin AMT 100 nmol at TIME 15, TIME 15.5 min): 453.1 nmol
DV = amount of measured pitavastatin and/or eltrombopag (human hepatocytes; ID 36, pitavastatin AMT 100 nmol at TIME 15, TIME 16 min): 430.66 nmol
DV = amount of measured pitavastatin and/or eltrombopag (human hepatocytes; ID 36, pitavastatin AMT 100 nmol at TIME 15, TIME 17 min): 384.81 nmol
DV = amount of measured pitavastatin and/or eltrombopag (human hepatocytes; ID 36, pitavastatin AMT 100 nmol at TIME 15, TIME 20 min): 459.69 nmol
DV = amount of measured pitavastatin and/or eltrombopag (human hepatocytes; ID 36, pitavastatin AMT 100 nmol at TIME 15, TIME 25 min): 410.46 nmol
DV = amount of measured pitavastatin and/or eltrombopag (human hepatocytes; ID 36, pitavastatin AMT 100 nmol at TIME 15, TIME 45 min): 416.81 nmol
transporter‐mediated clearance (V max.up.E.WB/K m.up.E.WB) (human hepatocytes; eltrombopag, whole body scaled): 1625 mL/min/liver
K m.up.X or K I.up.X (human hepatocytes; from micro‐rate constants, Eq. 7): 3,138 ng/mL
passive efflux clearance out of the cell (human hepatocytes; k bX scaled to a clearance): 1.3 (1.05–1.95) µL/min/1 × 10^6 cells
P dif.X (human hepatocytes; k fX scaled to a clearance): 52 (40–64) µL/min/1 × 10^6 cells
k bX, passive rate constant out of the cell (human hepatocytes; [2]): 0.43 (0.35–0.65) /min
k fX, passive rate constant into the cell (human hepatocytes; [2]): 0.05 (0.04–0.06) /min
k aX, transporter association rate constant (human hepatocytes; [3]): 0.26 (0.23–0.31) /nmol/min
k dX, transporter dissociation rate constant (human hepatocytes; [3]): 1.57 (1.42–2) /min
k tX, transporter translocation rate constant (human hepatocytes; [3]): 0.27 (0.24–0.32) /min
V max.up..X, maximum uptake velocity (human hepatocytes; scaled to whole liver, Eq. 6): 5.1 × 10^6 ng/min/liver
P def.X, passive diffusion out of the cell (human hepatocytes; scaled to whole liver, Eq. 9): 307 mL/min/liver
V max.up (human hepatocytes; transporter rate constants transformed, Eq. 6): 49 (28–116) pmol/min/1 × 10^6 cells
IC50 [1]: 2 to 20 µM
